Test results from US20060223792A1, “Phenyl and pyridyl LTA4H modulators” (priority 2005, published 2006).
Counter-ions that a name gives are not always drawn.

target: T1, recombinant human LTA4 hydrolase (rhLTA4H) (Homo sapiens, UniProt P09960); experiment: Recombinant human LTA4 hydrolase assay for LTA4 hydrolase inhibitor activity; assay type: biochemical; settings: not given
T1 construct: made in house; host or cells: Spodoptera frugiperda (Sf-9) cells, baculovirus (pFastBac1)
T1 sequence (P09960 1-611): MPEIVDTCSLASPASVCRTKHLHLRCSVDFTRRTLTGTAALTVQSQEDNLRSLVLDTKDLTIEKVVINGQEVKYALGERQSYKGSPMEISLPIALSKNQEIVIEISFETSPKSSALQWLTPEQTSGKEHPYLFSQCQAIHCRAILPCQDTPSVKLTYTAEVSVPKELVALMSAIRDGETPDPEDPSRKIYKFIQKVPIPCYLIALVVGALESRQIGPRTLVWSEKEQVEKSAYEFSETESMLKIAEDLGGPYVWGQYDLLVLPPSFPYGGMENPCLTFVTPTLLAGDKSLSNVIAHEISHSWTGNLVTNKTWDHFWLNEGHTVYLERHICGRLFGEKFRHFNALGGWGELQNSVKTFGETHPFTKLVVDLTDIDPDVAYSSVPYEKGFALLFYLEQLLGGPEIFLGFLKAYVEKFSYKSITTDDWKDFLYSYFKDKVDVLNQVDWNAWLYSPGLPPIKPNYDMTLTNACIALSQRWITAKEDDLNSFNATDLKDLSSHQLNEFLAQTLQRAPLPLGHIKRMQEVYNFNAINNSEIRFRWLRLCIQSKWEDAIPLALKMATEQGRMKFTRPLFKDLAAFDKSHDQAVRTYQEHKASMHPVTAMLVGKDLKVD
Experimental: Recombinant Human LTA4 Hydrolase Assay for LTA4 Hydrolase Inhibitor Activity
Compounds of the present invention were tested for LTA4 hydrolase inhibitor activity against recombinant human LTA4 hydrolase (rhLTA4H). Vectors were prepared and used to express rhLTA4H essentially as follows: LTA4 hydrolase encoding DNA was amplified by polymerase chain reaction (PCR) using a human placental cDNA library as a template. Oligonucleotide primers for the PCR reaction were based on the 5′-end, and the complement of the 3′-end, of the published nucleotide sequence for the coding region of the human LTA4 hydrolase gene (C. D. Funk et al., Proc. Natl. Acad. Sci. USA 1987, 84:6677-6681). The amplified […] DNA fragment encoding LTA4 hydrolase was isolated and cloned into the pFastBac1 vector (Invitrogen). Recombinant baculovirus was generated as described by the manufacturer, and used to infect Spodoptera frugiperda (Sf-9) cells. Recombinant LTA4 hydrolase enzyme was purified from the infected Sf-9 cells essentially as described by J. K. Gierse et al. (Protein Expr. Purif. 1993, 4(5):358-366). The purified enzyme solution was adjusted to contain 0.29 mg/mL LTA4 hydrolase, 50 mM Tris (pH 8.0),150 mM NaCl, 5 mM dithiothreitol, 50% glycerol, and EDTA-free Complete protease inhibitor cocktail (Roche). The specific activity of the enzyme was about 3.8 μmol/min/mg.
LTA4 substrate was prepared from the methyl ester of LTA4 (Cayman Chemical) by treatment with 67 equiv. of NaOH under nitrogen at rt for 40 min. The LTA4 substrate in its free acid form was kept frozen at −80° C. until needed. Each compound was diluted to different concentrations in assay buffer (0.1 M potassium phosphate (pH 7.4), 5 mg/mL fatty acid free BSA) containing 10% DMSO. A 25-μL aliquot of each compound dilution was incubated for 10 min at rt with an equal volume of assay buffer containing 36 ng of recombinant human LTA4H. The solution was then adjusted to 200 μL with assay buffer. LTA4 (free acid) was thawed and diluted in assay buffer to a concentration of 357 ng/mL, and 25 μL (9 ng) of LTA4 substrate was added to the reaction mixture (total volume=225 μL) at time zero. Each reaction was carried out at rt for 10 min. The reaction was stopped by diluting 10 μL of the reaction mixture with 200 μL of assay buffer. LTB4 was quantifiedin the diluted sample by a commercially available enzyme-linked immunoassay (Cayman Chemical Co.), as recommended by the manufacturer. Positive controls, under essentially identical conditions but without addition of an inhibitor compound, and negative controls, containing all assay components except enzyme, were routinely run in each experiment. IC50 values were determined by fitting the activity data at different compound concentrations to a 4-parameter equation using the Grafit program (Erithacus software).
The IC50 values presented in the table below should be expected to fall within the typical three-fold variability of assays of this type. The values presented here are, in general, an average of one to three determinations.

Row | SMILES | IC50
1 | CCCN(CCCc1ccc(OC(=O)Nc2ccccc2)cc1)CC1CC1 [Example 38, Phenyl-carbamic acid 4-[3-(cyclopropylmethyl-propyl-amino)-propyl]-phenyl ester hydrochloride] | 6 nM

same assay, conditions: recombinant human LTA4H, LTB4 quantified by enzyme-linked immunoassay; average of one to three determinations; read-out: IC50

Row | SMILES | IC50
2 | O=C(Oc1ccc(OCCN2CCCCC2)cc1)c1cc2ccccc2[nH]1 [Example 23, 1H-Indole-2-carboxylic acid 4-(2-piperidin-1-yl-ethoxy)-phenyl ester] | 75 nM
3 | Fc1ccccc1CCOc1ccc(OCCN2CCCCC2)cc1 [Example 70, 1-(2-{4-[2-(2-Fluoro-phenyl)-ethoxy]-phenoxy}-ethyl)-piperidine] | 100 nM
4 | COC(=O)C1CCN(CCc2ccc(OCC(O)c3ccccc3)cc2)CC1 (stereo not drawn) [Example 76, 1-{2-[4-(2—hydroxy-2-phenyl-ethoxy)-phenyl]-ethyl}-piperidine-4-carboxylic acid methyl ester] | 3 nM
5 | CCOC(=O)CCN(CCc1ccc(OCCc2ccccc2)cc1)C1CCN(C(C)=O)CC1 [Example 90, 3-{(1-Acetyl-piperidin-4-yl)-[2-(4-phenethyloxy-phenyl)-ethyl]-amino}-propionic acid ethyl ester] | 21 nM
6 | O=C1CCCCN1C1CCN(CCc2ccc(OCC(O)c3ccccc3)cc2)CC1 (stereo not drawn) [Example 27, 1′-{2-[4-(2-Hydroxy-2-phenyl-ethoxy)-phenyl]-ethyl}-[1,4′]bipiperidinyl-2-one] | 4 nM
7 | c1ccc(CCOc2ccc(CCNC3CC3)cc2)cc1 [Example 32, Cyclopropyl-[2-(4-phenethyloxy-phenyl)-ethyl]-amine] | 177 nM
8 | CCOC(=O)CCN(CCc1ccc(OCCc2ccccc2)cc1)C1CCCCC1 [Example 87, 3-{Cyclohexyl-[2-(4-phenethyloxy-phenyl)-ethyl]-amino}-propionic acid ethyl ester] | 5 nM
9 | O=C(Nc1ccc(O)cc1)Oc1ccc(OCCN2CCC(O)(c3ccccc3)CC2)cc1 [Example 39, (4—hydroxy-phenyl)-carbamic acid 4-[2-(4-hydroxy-4-phenyl-piperidin-1-yl)-ethoxy]-phenyl ester] | 0.4 nM
10 | NC(=O)C1CCCN(Cc2ccc(OCCCc3ccccc3)cc2)C1 (stereo not drawn) [Example 111, 1-[4-(3-Phenyl-propoxy)-benzyl]-piperidine-3-carboxylic acid amide] | 95 nM
11 | O=C(O)C1CCN(Cc2ccc(OCCc3ccccc3)nc2)CC1 [Example 94, 1-(6-Phenethyloxy-pyridin-3-ylmethyl)-piperidine-4-carboxylic acid] | 254 nM
12 | CCCN(CCc1ccc(OC(=O)Nc2ccccc2)cc1)CC1CC1 [Example 62, Phenyl-carbamic acid 4-[2-(cyclopropylmethyl-propyl-amino)-ethyl]-phenyl ester] | 4 nM
13 | NC(=O)C1CCN(CCc2ccc(OCC(O)c3ccccc3)cc2)CC1 (stereo not drawn) [Example 78, 1-{2-[4-(2-Hydroxy-2-phenyl-ethoxy)-phenyl]-ethyl}-piperidine-4-carboxylic acid amide] | 6 nM
14 | O=C(Oc1ccccc1)Oc1ccc(OCCN2CCCCC2)cc1 [Example 20, Carbonic acid phenyl ester 4-(2-piperidin-1-yl-ethoxy)-phenyl ester] | 1 nM
15 | O=C(O)C1CCN(CCOc2ccc(OCCc3ccccc3)cc2)CC1 [Example 86, 1-[2-(4-Phenethyloxy-phenoxy)-ethyl]-piperidine-4-carboxylic acid] | 17 nM
16 | CCOC(=O)C1CCCCN1C1CCN(CCc2ccc(OCCc3ccccc3)cc2)CC1 (stereo not drawn) [Example 66, 1′-[2-(4-Phenethyloxy-phenyl)-ethyl]-[1,4′]bipiperidinyl-2-carboxylic acid ethyl ester] | 88 nM
17 | CCOC(=O)CCNCCc1ccc(OCCc2ccccc2)cc1 [Example 84, 3-[2-(4-Phenethyloxy-phenyl)-ethylamino]-propionic acid ethyl ester] | 10 nM

Row | SMILES | IC50
18 | NC(=O)NC1CCN(Cc2ccc(OCCc3ccccc3)cc2)CC1 [Example 114, [1-(4-Phenethyloxy-benzyl)-piperidin-4-yl]-urea] | 17 nM
19 | NC(=O)C1CCN(Cc2ccc(OCCc3ccccc3)cc2)CC1 [Example 101, 1-(4-Phenethyloxy-benzyl)-piperidine-4-carboxylic acid amide] | 28 nM
20 | O=C(Nc1ccccc1)Oc1ccc(OCCN2CCCCCC2)cc1 [Example 55, Phenyl-carbamic acid 4-(2-azepan-1-yl-ethoxy)-phenyl ester] | 0.5 nM
21 | O=C(Nc1cccc(Cl)c1)Oc1ccc(OCCN2CCCCC2)cc1 [Example 45, (3-Chloro-phenyl)-carbamic acid 4-(2-piperidin-1-yl-ethoxy)-phenyl ester] | 64 nM
22 | CN(C(=O)Oc1ccc(OCCN2CCC(C(=O)O)CC2)cc1)c1cccc(O)c1 [Example 9, 1-(2-{4-[(3—hydroxy-phenyl)-methyl-carbamoyloxy]-phenoxy}-ethyl)-piperidine-4-carboxylic acid] | 389 nM
23 | O=C1CCCCN1C1CCN(CCc2ccc(OCCc3ccccc3)cc2)CC1 [Example 80, 1′-[2-(4-Phenethyloxy-phenyl)-ethyl]-[1,4′]bipiperidinyl-2-one] | 11 nM
24 | O=C(O)C1CCCN(C2CCN(CCc3ccc(OCCc4ccccc4)cc3)CC2)C1 (stereo not drawn) [Example 19, 1′-[2-(4-Phenethyloxy-phenyl)-ethyl]-[1,4′]bipiperidinyl-3-carboxylic acid] | 223 nM
25 | CCOC(=O)C1CCN(Cc2ccc(OCCCc3ccccc3)cc2)CC1 [Example 106, 1-[4-(3-Phenyl-propoxy)-benzyl]-piperidine-4-carboxylic acid ethyl ester] | 154 nM
26 | O=C(Nc1ccccc1)Oc1ccc(OCCN2CCC(Cc3ccccc3)CC2)cc1 [Example 50, Phenyl-carbamic acid 4-[2-(4-benzyl-piperidin-1-yl)-ethoxy]-phenyl ester] | 21 nM
27 | N#CCCCN(CCc1ccc(OCCc2ccccc2)cc1)C1CC1 [Example 33, 4-{Cyclopropyl-[2-(4-phenethyloxy-phenyl)-ethyl]-amino}-butyronitrile] | 49 nM
28 | CC(=O)N1CCC(N(CCC(=O)O)CCc2ccc(OCCc3ccccc3)cc2)CC1 [Example 91, 3-{(1-Acetyl-piperidin-4-yl)-[2-(4-phenethyloxy-phenyl)-ethyl]-amino}-propionic acid] | 0.7 nM
29 | CCCC1CCN(CCOc2ccc(OC(=O)Nc3ccccc3)cc2)CC1 [Example 41, Phenyl-carbamic acid 4-[2-(4-propyl-piperidin-1-yl)-ethoxy]-phenyl ester] | 1 nM
30 | OC(COc1ccc(OCCN2CCCCC2)cc1)c1ccccc1 (stereo not drawn) [Example 71, 1-Phenyl-2-[4-(2-piperidin-1-yl-ethoxy)-phenoxy]-ethanol] | 5 nM
31 | O=C(Nc1ccccc1)OCc1ccc(OCCN2CCCCC2)cc1 [Example 16, Phenyl-carbamic acid 4-(2-piperidin-1-yl-ethoxy)-benzyl ester] | 352 nM
32 | Oc1cccc(CCOc2ccc(OCCN3CCCCC3)cc2)c1 [Example 28, 3-{2-[4-(2-Piperidin-1-yl-ethoxy)-phenoxy]-ethyl}-phenol] | 22 nM
33 | O=C(Nc1ccccc1)Oc1ccc(OCCCN2CCC(O)(c3ccccc3)CC2)cc1 [Example 42, Phenyl-carbamic acid 4-[3-(4-hydroxy-4-phenyl-piperidin-1-yl)-propoxy]-phenyl ester] | 1 nM
